Reference: ChEMBL document CHEMBL5465560, “Selectivity Literature for EUbOPEN Chemogenomic Library” (2024)

Tests used:
[1] = target: T1, Mitogen-activated protein kinase kinase kinase kinase 3 (Homo sapiens) (UniProt Q8IVH8); experiment: Selectivity interaction (KinomeScan (DiscoverX)) EUB0000092b MAP4K3; details: at 10 µM
T1 sequence (whole entry): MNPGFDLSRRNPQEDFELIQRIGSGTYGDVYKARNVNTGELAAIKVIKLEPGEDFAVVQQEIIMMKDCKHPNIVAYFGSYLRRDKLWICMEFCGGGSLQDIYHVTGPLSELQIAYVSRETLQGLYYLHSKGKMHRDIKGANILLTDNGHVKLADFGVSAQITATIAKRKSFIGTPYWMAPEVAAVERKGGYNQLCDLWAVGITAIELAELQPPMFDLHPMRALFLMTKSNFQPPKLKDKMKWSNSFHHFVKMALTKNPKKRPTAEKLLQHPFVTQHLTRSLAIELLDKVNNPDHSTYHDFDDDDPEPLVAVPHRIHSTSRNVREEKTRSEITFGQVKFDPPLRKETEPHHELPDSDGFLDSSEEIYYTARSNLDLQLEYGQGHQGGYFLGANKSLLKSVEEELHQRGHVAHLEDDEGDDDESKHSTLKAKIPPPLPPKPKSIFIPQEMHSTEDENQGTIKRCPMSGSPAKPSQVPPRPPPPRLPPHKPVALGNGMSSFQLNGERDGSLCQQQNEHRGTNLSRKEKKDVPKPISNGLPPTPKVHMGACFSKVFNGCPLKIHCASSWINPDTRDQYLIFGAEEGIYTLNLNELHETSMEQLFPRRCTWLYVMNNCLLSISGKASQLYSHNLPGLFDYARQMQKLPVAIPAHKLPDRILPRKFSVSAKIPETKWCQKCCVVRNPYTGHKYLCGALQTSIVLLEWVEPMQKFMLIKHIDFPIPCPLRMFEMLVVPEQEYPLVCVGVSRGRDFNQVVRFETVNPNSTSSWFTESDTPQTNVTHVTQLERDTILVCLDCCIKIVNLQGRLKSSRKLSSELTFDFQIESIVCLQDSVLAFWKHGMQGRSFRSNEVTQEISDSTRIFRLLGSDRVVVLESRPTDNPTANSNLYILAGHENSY

[2] = target: Serine/threonine-protein kinase VRK2 (Homo sapiens) (UniProt Q86Y07); experiment: Selectivity interaction (LanthaScreen Eu Kinase Binding Assay) EUB0001632a VRK2; details: at 10 µM
[3] = target: Casein kinase I isoform alpha (Homo sapiens, UniProt P48729); experiment: Selectivity interaction (ActivX KiNativ screen (kinase selectivity in THP-1 cell lysates)) EUB0000639a CSNK1A1; assay type: subcellular; details: lysate, at 0.2 µM
[4] = target: T2, Ephrin type-A receptor 6 (Homo sapiens) (UniProt Q9UF33); experiment: Selectivity interaction (KinomeScan (DiscoverX)) EUB0001049a EPHA6; details: at 1 µM
T2 sequence (whole entry): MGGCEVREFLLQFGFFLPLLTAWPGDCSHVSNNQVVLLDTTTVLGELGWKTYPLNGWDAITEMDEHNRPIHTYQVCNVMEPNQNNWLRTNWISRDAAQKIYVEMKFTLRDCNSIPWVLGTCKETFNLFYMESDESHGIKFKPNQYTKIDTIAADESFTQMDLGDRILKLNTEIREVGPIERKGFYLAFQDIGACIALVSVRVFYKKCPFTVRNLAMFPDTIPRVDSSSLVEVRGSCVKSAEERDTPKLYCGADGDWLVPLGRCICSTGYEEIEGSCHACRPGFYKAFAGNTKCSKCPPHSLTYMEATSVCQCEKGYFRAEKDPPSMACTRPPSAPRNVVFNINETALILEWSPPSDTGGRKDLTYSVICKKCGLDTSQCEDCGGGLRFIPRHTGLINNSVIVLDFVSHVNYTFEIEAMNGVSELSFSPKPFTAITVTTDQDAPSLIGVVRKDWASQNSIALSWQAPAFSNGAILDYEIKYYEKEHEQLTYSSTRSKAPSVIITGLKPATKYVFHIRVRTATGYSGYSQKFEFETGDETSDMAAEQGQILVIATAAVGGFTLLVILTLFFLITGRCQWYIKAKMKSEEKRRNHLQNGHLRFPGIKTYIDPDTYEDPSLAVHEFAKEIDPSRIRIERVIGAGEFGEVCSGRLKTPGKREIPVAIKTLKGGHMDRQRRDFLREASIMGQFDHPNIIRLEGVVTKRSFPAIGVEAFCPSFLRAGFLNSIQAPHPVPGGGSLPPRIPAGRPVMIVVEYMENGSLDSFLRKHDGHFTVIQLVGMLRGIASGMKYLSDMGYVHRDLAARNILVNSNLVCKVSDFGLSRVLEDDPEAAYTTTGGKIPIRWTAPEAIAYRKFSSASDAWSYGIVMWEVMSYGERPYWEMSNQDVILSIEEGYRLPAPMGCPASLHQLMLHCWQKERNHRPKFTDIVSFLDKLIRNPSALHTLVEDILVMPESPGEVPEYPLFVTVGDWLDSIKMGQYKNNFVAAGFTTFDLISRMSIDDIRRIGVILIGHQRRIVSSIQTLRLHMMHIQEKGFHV

[5] = target: T3, Protein kinase C iota type (Homo sapiens) (UniProt P41743); experiment: Selectivity interaction (KinomeScan (DiscoverX)) EUB0000045b PRKCI
T3 sequence (whole entry): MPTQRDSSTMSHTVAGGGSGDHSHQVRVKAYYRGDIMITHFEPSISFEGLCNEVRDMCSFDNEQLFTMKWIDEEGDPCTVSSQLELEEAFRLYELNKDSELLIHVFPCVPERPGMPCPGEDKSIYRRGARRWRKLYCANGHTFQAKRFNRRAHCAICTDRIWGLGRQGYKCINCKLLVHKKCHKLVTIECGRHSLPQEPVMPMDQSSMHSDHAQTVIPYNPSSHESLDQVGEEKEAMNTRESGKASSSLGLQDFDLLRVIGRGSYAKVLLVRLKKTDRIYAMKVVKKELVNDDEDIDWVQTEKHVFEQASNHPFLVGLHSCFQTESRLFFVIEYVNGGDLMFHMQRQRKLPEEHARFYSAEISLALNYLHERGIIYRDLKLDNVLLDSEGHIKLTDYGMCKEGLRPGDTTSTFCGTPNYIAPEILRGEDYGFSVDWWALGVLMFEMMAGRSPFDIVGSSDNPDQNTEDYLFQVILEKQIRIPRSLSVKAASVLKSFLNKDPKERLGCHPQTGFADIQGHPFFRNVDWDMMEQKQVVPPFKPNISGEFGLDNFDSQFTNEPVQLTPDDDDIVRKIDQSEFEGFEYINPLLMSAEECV

Serine/threonine-protein kinase VRK2 (Homo sapiens), sequence (Q86Y07 whole entry, canonical isoform): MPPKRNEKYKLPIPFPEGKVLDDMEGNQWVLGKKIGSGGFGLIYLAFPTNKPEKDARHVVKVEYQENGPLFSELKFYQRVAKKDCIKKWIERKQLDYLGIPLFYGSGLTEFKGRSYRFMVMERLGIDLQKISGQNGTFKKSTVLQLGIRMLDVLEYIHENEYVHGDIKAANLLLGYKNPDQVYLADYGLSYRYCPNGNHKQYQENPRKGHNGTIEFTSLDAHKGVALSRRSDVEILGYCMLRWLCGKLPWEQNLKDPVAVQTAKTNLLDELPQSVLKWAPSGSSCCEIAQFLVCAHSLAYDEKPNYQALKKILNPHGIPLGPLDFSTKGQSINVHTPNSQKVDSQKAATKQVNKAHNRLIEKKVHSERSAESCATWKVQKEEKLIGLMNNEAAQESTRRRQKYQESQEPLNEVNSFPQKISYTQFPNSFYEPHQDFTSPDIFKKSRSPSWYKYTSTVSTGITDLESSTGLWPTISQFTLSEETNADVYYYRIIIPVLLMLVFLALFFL
Casein kinase I isoform alpha, sequence (P48729 2-337 limits assumed): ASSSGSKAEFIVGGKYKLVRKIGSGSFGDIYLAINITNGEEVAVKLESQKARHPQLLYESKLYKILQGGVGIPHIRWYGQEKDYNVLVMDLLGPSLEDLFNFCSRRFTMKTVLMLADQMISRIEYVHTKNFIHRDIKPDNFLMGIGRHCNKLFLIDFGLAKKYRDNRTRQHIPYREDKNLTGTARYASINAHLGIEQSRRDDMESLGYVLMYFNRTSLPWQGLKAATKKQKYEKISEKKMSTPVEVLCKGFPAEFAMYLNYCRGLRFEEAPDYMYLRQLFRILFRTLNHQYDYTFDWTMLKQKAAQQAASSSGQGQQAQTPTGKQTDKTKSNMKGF

With `CCC(=O)N1CCN(c2ccc(-n3c(=O)ccc4cnc5ccc(-c6cnc7ccccc7c6)cc5c43)cc2C(F)(F)F)CC1` the % of control [1] was 1.9%.
`Cn1cc(-n2cnc3c(NCc4nc5cc(Cl)c(Cl)cc5[nH]4)nc(N4CCOCC4)nc32)cn1` showed a % of inhibition [2] of -14%.
`CC[C@@H]1[C@H](F)C(=O)N[C@@H]1COc1nccc2cc(C(N)=O)c(OC)cc12` [ZIMLOVISERTIB] was tested, and the % of inhibition [3] was -3.6%.
`COc1cc(Nc2nc(C)cc(-c3cnn4nc(OC)ccc34)n2)cc(C(F)(F)F)c1` gave a % of control [4] of 95%.
`C=CC(=O)Nc1cc(-n2c(=O)ccc3cnc4ccc(-c5ccc(NS(C)(=O)=O)cc5)cc4c32)ccc1C` showed a % of control ([5]; at 1 µM) of 84% and a % of control ([5]; at 10 µM) of 64%.
